What was measured:
CK-p25 mice = experiment: Novel object recognition test in CK-p25 mice; format: in vivo, mouse
Protocol: (§1) Given the neuroprotective effect of Plx3397+GENUS treatment, whether this treatment also impacted learning and memory was evaluated. Mice were tested in an open field (OF) and assessed for changes in anxiety and activity levels, followed by a novel object recognition (NOR) test of memory. 10-month-1d 5×FAD mice were treated with Plx3397. Following 20 days administration of Plx3397 chow, untreated- and Plx3397 treated 5×FAD mice (which continued PLX administration) were subjected to 30 days of daily GENUS. Mice were tested in OF and NOR during the last week of these treatments. […] Next, CK-p25 mice were treated for 42 days and assessed behavioral performance.
For OF, mice were introduced into an open field box (dimensions: length=460 mm, width=460 mm and height=400 mm; TSE-Systems) and were tracked using Noldus (Ethovision) for 12 min, with time spent in the center and peripheral area of the arena measured. […] Mouse behavior was monitored for 7 min. Time spent exploring both the familiar and novel objects was recorded using Noldus and computed offline. Percentage of novelty preference index was calculated as follows: time exploring novel object (Nt) divided by total time exploring novel and familiar (Ft) objects and presented in %−{[Nt/Nt+Ft]*100}. […]

5×FAD mice = experiment: Novel object recognition test in 5×FAD mice; format: in vivo, mouse; conditions: chance level 50%, control 51.33±4.15
Protocol: as §1
For OF, mice were introduced into an open field box (dimensions: length=460 mm, width=460 mm and height=400 mm; TSE-Systems) and were tracked using Noldus (Ethovision) for 12 min, with time spent in the center and peripheral area of the arena measured. […] Mouse behavior was monitored for 7 min. Time spent exploring both the familiar and novel objects was recorded using Noldus and computed offline. Percentage of novelty preference index was calculated as follows: time exploring novel object (Nt) divided by total time exploring novel and familiar (Ft) objects and presented in %−{[Nt/Nt+Ft]*100}.

For `FC(F)(F)c1ccc(CNc2ccc(Cc3c[nH]c4ncc(Cl)cc34)cn2)cn1` [Plx3397, Pexidartinib], the “novel object recognition memory in the NOR test” value (CK-p25 mice; CK-p25 mice treated for 42 days) was “significantly improved”, the “novel object recognition memory in the NOR test (novelty index)” value (CK-p25 mice; CK-p25 mice, control 54.82±3.70) was 70.52±2.89 and the “preference for the novel object in the NOR test (novelty index)” value (5×FAD mice) was 57.55±7.00%.

Reference: patent US20230181905A1, “Systems, Devices, and Methods for Enhancing the Neuroprotective Effects of Non-Invasive Gamma Stimulation with Pharmacological Agents” (Massachusetts Institute of Technology, priority 2021, published 2023)
